Consider 5 sequences from patent US20070128217A1 (priority 2003, published 2007).

For test [1], the system named is antibodies in sera from SARS patients (sera 1a, 1b, 2, 6, 37, 62, London, SARS-yellow, SARS-green). The test is classed as binding, human. On the set-up: Binding of serum 6 to linear peptides of protein X1 of SARS-CoV Urbani / Binding of serum 37 to linear peptides of protein X1 of SARS-CoV Urbani / Binding of serum 6 to looped/cyclic peptide (PEPSCAN-ELISA) / Binding of serum 37 to looped/cyclic peptide (PEPSCAN-ELISA) / Binding of serum 37 to looped/cyclic peptides of protein X1 of SARS-CoV Urbani / Binding of serum 6 to linear peptides of protein X2 / Binding of serum 37 to linear peptides of protein X2 / Binding of serum 37 to looped/cyclic peptides of protein X2 of SARS-CoV Urbani / Binding of serum 6 to linear peptides of protein M of SARS-CoV Urbani / Binding of serum 37 to linear peptides of protein M of SARS-CoV Urbani / Binding of serum 6 to looped/cyclic peptides of protein M of SARS-CoV Urbani / Binding of serum 37 to looped/cyclic peptides of protein M of SARS-CoV Urbani / Binding of serum 6 to linear peptides of protein X3 of SARS-CoV Urbani / Binding of serum 37 to linear peptides of protein X3 of SARS-CoV Urbani / Binding of serum 37 to looped/cyclic peptides of protein X3 of SARS-CoV Urbani / Binding of serum 6 to linear peptides of protein X4 of SARS-CoV Urbani / Binding of serum 37 to linear peptides of protein X4 of SARS-CoV Urbani / Binding of serum 37 to looped/cyclic peptides of protein X4 of SARS-CoV Urbani / Binding of serum 6 to linear peptides of protein X5 of SARS-CoV Urbani / Binding of serum 37 to linear peptides of protein X5 of SARS-CoV Urbani / Binding of serum 37 to looped/cyclic peptides of protein X5 of SARS-CoV Urbani / Binding of serum 6 to linear peptides of protein N of SARS-CoV Urbani / Binding of serum 37 to linear peptides of protein N of SARS-CoV Urbani / Binding of serum 6 to linear peptide (PEPSCAN-ELISA) / Binding of serum 1a to looped/cyclic peptides of protein N of SARS-CoV Urbani / Binding of serum 1b to looped/cyclic peptides of protein N of SARS-CoV Urbani / Binding of serum 2 to looped/cyclic peptides of protein N of SARS-CoV Urbani / Binding of serum 6 to looped/cyclic peptides of protein N of SARS-CoV Urbani / Binding of serum 37 to looped/cyclic peptides of protein N of SARS-CoV Urbani / Binding of serum 62 to looped/cyclic peptides of protein N of SARS-CoV Urbani / Binding of serum London to looped/cyclic peptides of protein N of SARS-CoV Urbani / Binding of serum SARS-green to looped/cyclic peptides of protein N of SARS-CoV Urbani: unit not given here.

The test system of test [2] is rabbit serum obtained by immunizing a rabbit with the SARS-CoV strain Frankfurt 1. The test is classed as binding. On the set-up: Binding of a rabbit serum to linear peptides / Binding of a rabbit serum to looped peptides / Rabbit serum linear peptides / Rabbit serum looped peptides / Binding of a rabbit serum to linear peptides of protein N of SARS-CoV Urbani (Rabbit serum linear peptides) / Binding of a rabbit serum to looped/cyclic peptides of protein N of SARS-CoV Urbani (Rabbit serum looped peptides): unit not given here.

Turning to FICNLLLLFVTIYSH, in test [1], the “Binding of serum 1a to linear peptides of protein X1 of SARS-CoV Urbani” value amounted to 0.6, the “Binding of serum 1a to looped/cyclic peptide (PEPSCAN-ELISA)” value is on record as 0.5, the “Binding of serum 1b to linear peptides of protein X1 of SARS-CoV Urbani” value amounted to 0.6 and the “Binding of serum 1b to looped/cyclic peptide (PEPSCAN-ELISA)” value was determined as 0.3. In test [1], the “Binding of serum 2 to linear peptides of protein X1 of SARS-CoV Urbani” value stood at 0.6, the “Binding of serum 2 to looped/cyclic peptide (PEPSCAN-ELISA)” value turned out to be 0.4, the “Binding of serum 6 to linear peptides of protein X1 of SARS-CoV Urbani” value is on record as 0.4 and the “Binding of serum 6 to looped/cyclic peptide (PEPSCAN-ELISA)” value came to 0.2. Further, in test [1], the “Binding of serum 37 to linear peptides of protein X1 of SARS-CoV Urbani” value is 0.5, the “Binding of serum 37 to looped/cyclic peptide (PEPSCAN-ELISA)” value was found to be 0.5, the “Binding of serum 62 to linear peptides of protein X1 of SARS-CoV Urbani” value was 0.5 and the “Binding of serum 62 to looped/cyclic peptide (PEPSCAN-ELISA)” value was determined as 0.5. In test [1], the “Binding of serum London to linear peptides of protein X1 of SARS-CoV Urbani” value is 0.3, the “Binding of serum London to looped/cyclic peptide (PEPSCAN-ELISA)” value came to 0.2, the “Binding of serum SARS-green to linear peptides of protein X1 of SARS-CoV Urbani” value was determined as 0.2 and the “Binding of serum SARS-green to looped/cyclic peptide (PEPSCAN-ELISA)” value was found to be 0.3. In test [1], the “Binding of serum SARS-yellow to linear peptides of protein X1 of SARS-CoV Urbani” value turned out to be 0.4 and the “Binding of serum SARS-yellow to looped/cyclic peptide (PEPSCAN-ELISA)” value stood at 0.5. In addition, in test [2], the “Binding of a rabbit serum to linear peptides” value came to 0.1 and the “Binding of a rabbit serum to looped peptides” value turned out to be 0.5.

HRWHTMVQTCTPNVT: in test [1], the “Binding of serum 1a to linear peptides of protein X5 of SARS-CoV Urbani” value was 0.7, the “Binding of serum 1a to looped/cyclic peptides of protein X5 of SARS-CoV Urbani” value is listed as 0.6, the “Binding of serum 1b to linear peptides of protein X5 of SARS-CoV Urbani” value amounted to 0.6 and the “Binding of serum 1b to looped/cyclic peptides of protein X5 of SARS-CoV Urbani” value is recorded as 0.5. Also, in test [1], the “Binding of serum 2 to linear peptides of protein X5 of SARS-CoV Urbani” value is reported as 0.8, the “Binding of serum 2 to looped/cyclic peptides of protein X5 of SARS-CoV Urbani” value turned out to be 0.5, the “Binding of serum 6 to linear peptides of protein X5 of SARS-CoV Urbani” value was found to be 0.5 and the “Binding of serum 6 to looped/cyclic peptides of protein X5 of SARS-CoV Urbani” value was determined as 0.3. Moreover, in test [1], the “Binding of serum 37 to linear peptides of protein X5 of SARS-CoV Urbani” value worked out at 0.7, the “Binding of serum 37 to looped/cyclic peptides of protein X5 of SARS-CoV Urbani” value is 0.3, the “Binding of serum 62 to linear peptides of protein X5 of SARS-CoV Urbani” value is 0.8 and the “Binding of serum 62 to looped/cyclic peptides of protein X5 of SARS-CoV Urbani” value stood at 0.3. Also, in test [1], the “Binding of serum London to linear peptides of protein X5 of SARS-CoV Urbani” value stood at 0.7, the “Binding of serum London to looped/cyclic peptides of protein X5 of SARS-CoV Urbani” value came to 0.1, the “Binding of serum SARS-green to linear peptides of protein X5 of SARS-CoV Urbani” value is given as 0.5 and the “Binding of serum SARS-green to looped/cyclic peptides of protein X5 of SARS-CoV Urbani” value was 0.3. In test [1], the “Binding of serum SARS-yellow to linear peptides of protein X5 of SARS-CoV Urbani” value stood at 0.5 and the “Binding of serum SARS-yellow to looped/cyclic peptides of protein X5 of SARS-CoV Urbani” value came to 0.2. Besides, in test [2], the “Rabbit serum linear peptides” value worked out at 0.7 and the “Rabbit serum looped peptides” value worked out at 0.3.

For the sequence IGVAFLAVFQSATKI, in test [1], the “Binding of serum 1a to linear peptides of protein X1 of SARS-CoV Urbani” value is recorded as 0.6, the “Binding of serum 1a to looped/cyclic peptide (PEPSCAN-ELISA)” value came out at 0.5, the “Binding of serum 1b to linear peptides of protein X1 of SARS-CoV Urbani” value was determined as 0.5 and the “Binding of serum 1b to looped/cyclic peptide (PEPSCAN-ELISA)” value was 0.4. Also, in test [1], the “Binding of serum 2 to linear peptides of protein X1 of SARS-CoV Urbani” value was 0.6, the “Binding of serum 2 to looped/cyclic peptide (PEPSCAN-ELISA)” value stood at 0.4, the “Binding of serum 6 to linear peptides of protein X1 of SARS-CoV Urbani” value was determined as 0.5 and the “Binding of serum 6 to looped/cyclic peptide (PEPSCAN-ELISA)” value came to 0.3. Besides, in test [1], the “Binding of serum 37 to linear peptides of protein X1 of SARS-CoV Urbani” value turned out to be 0.6, the “Binding of serum 37 to looped/cyclic peptide (PEPSCAN-ELISA)” value is 0.5, the “Binding of serum 62 to linear peptides of protein X1 of SARS-CoV Urbani” value is recorded as 0.6 and the “Binding of serum 62 to looped/cyclic peptide (PEPSCAN-ELISA)” value worked out at 0.6. For the same sequence, in test [1], the “Binding of serum London to linear peptides of protein X1 of SARS-CoV Urbani” value was 0.2, the “Binding of serum London to looped/cyclic peptide (PEPSCAN-ELISA)” value is reported as 0.2, the “Binding of serum SARS-green to linear peptides of protein X1 of SARS-CoV Urbani” value amounted to 0.2 and the “Binding of serum SARS-green to looped/cyclic peptide (PEPSCAN-ELISA)” value is 0.2. In test [1], the “Binding of serum SARS-yellow to linear peptides of protein X1 of SARS-CoV Urbani” value is on record as 0.3 and the “Binding of serum SARS-yellow to looped/cyclic peptide (PEPSCAN-ELISA)” value is 0.3. Also, in test [2], the “Binding of a rabbit serum to linear peptides” value is 0.1 and the “Binding of a rabbit serum to looped peptides” value came out at 0.6.

For IIALNKRWQLALYKG, in test [1], the “Binding of serum 1a to linear peptides of protein X1 of SARS-CoV Urbani” value stood at 0.7, the “Binding of serum 1a to looped/cyclic peptide (PEPSCAN-ELISA)” value is 0.6, the “Binding of serum 1b to linear peptides of protein X1 of SARS-CoV Urbani” value amounted to 0.4 and the “Binding of serum 1b to looped/cyclic peptide (PEPSCAN-ELISA)” value is 0.4. In test [1], the “Binding of serum 2 to linear peptides of protein X1 of SARS-CoV Urbani” value is reported as 0.5, the “Binding of serum 2 to looped/cyclic peptide (PEPSCAN-ELISA)” value stood at 0.5, the “Binding of serum 6 to linear peptides of protein X1 of SARS-CoV Urbani” value came out at 0.7 and the “Binding of serum 6 to looped/cyclic peptide (PEPSCAN-ELISA)” value came to 0.6. Further, in test [1], the “Binding of serum 37 to linear peptides of protein X1 of SARS-CoV Urbani” value was found to be 0.6, the “Binding of serum 37 to looped/cyclic peptide (PEPSCAN-ELISA)” value turned out to be 0.6, the “Binding of serum 62 to linear peptides of protein X1 of SARS-CoV Urbani” value stood at 0.5 and the “Binding of serum 62 to looped/cyclic peptide (PEPSCAN-ELISA)” value was determined as 0.6. Also, in test [1], the “Binding of serum London to linear peptides of protein X1 of SARS-CoV Urbani” value was found to be 0.3, the “Binding of serum London to looped/cyclic peptide (PEPSCAN-ELISA)” value was determined as 0.4, the “Binding of serum SARS-green to linear peptides of protein X1 of SARS-CoV Urbani” value was 0.3 and the “Binding of serum SARS-green to looped/cyclic peptide (PEPSCAN-ELISA)” value was determined as 0.2. In test [1], the “Binding of serum SARS-yellow to linear peptides of protein X1 of SARS-CoV Urbani” value is given as 0.5 and the “Binding of serum SARS-yellow to looped/cyclic peptide (PEPSCAN-ELISA)” value amounted to 0.5. In addition, the “Recognition of the peptide by the rabbit serum” value in test [2] is given as “recognized”.

For LACFVLAAVYRINWV, in test [1], the “Binding of serum 1a to linear peptides of protein M of SARS-CoV Urbani” value was 0.7, the “Binding of serum 1a to looped/cyclic peptides of protein M of SARS-CoV Urbani” value is 0.7, the “Binding of serum 1b to linear peptides of protein M of SARS-CoV Urbani” value was found to be 0.7 and the “Binding of serum 1b to looped/cyclic peptides of protein M of SARS-CoV Urbani” value was 0.5. In addition, in test [1], the “Binding of serum 2 to linear peptides of protein M of SARS-CoV Urbani” value was found to be 0.6, the “Binding of serum 2 to looped/cyclic peptides of protein M of SARS-CoV Urbani” value is listed as 0.9, the “Binding of serum 6 to linear peptides of protein M of SARS-CoV Urbani” value stood at 0.4 and the “Binding of serum 6 to looped/cyclic peptides of protein M of SARS-CoV Urbani” value came to 0.7. In test [1], the “Binding of serum 37 to linear peptides of protein M of SARS-CoV Urbani” value worked out at 0.5, the “Binding of serum 37 to looped/cyclic peptides of protein M of SARS-CoV Urbani” value was 0.6, the “Binding of serum 62 to linear peptides of protein M of SARS-CoV Urbani” value stood at 0.5 and the “Binding of serum 62 to looped/cyclic peptides of protein M of SARS-CoV Urbani” value was found to be 0.7. Also, in test [1], the “Binding of serum London to linear peptides of protein M of SARS-CoV Urbani” value is given as 0.4, the “Binding of serum London to looped/cyclic peptides of protein M of SARS-CoV Urbani” value is reported as 0.3, the “Binding of serum SARS-green to linear peptides of protein M of SARS-CoV Urbani” value is listed as 0.6 and the “Binding of serum SARS-green to looped/cyclic peptides of protein M of SARS-CoV Urbani” value is 0.3. For the same sequence, in test [1], the “Binding of serum SARS-yellow to linear peptides of protein M of SARS-CoV Urbani” value was 0.3 and the “Binding of serum SARS-yellow to looped/cyclic peptides of protein M of SARS-CoV Urbani” value amounted to 0.4. In test [2], the “Rabbit serum linear peptides” value was 0.3 and the “Rabbit serum looped peptides” value worked out at 0.2.
